Reference: patent US20080031866A1, “METHOD FOR MODULATING THE PHARMACOKINETICS AND METABOLISM OF A THERAPEUTIC AGENT” (priority 2006, published 2008)
Read-outs that look alike come from different tables or passages of the source.

Assay: Oral gavage pharmacokinetics, jugular and portal vein sampling, first pass metabolism
Assay type: in vivo, rat
Settings: for AUC: po, 75 mg/kg; for AUC / concentration at 0 h / concentration at 0.08 h / concentration at 0.25 h / concentration at 0.33 h / concentration at 0.5 h / concentration at 0.67 h / concentration at 1 h / concentration at 1.25 h / concentration at 1.5 h / concentration at 2 h / concentration at 3 h / concentration at 4 h / concentration at 6 h / concentration at 12 h / concentration at 24 h / Cmax: rats N=4; for Cmax: read-out: Cmax average ± standard deviation
Experimental: Two separate IV studies were carried out using two separate lots of animals. IV-A was run on the same lot of animals as the oral gavage study and IV-B was run on the same lot of animals as the intraduodenal and intra-colonic studies.
For the oral gavage dosing, Compound 1 was prepared in neat PEG-400. For the intraduodenal and intracolonic dosing solutions, Compound 1 was added to neat Tween 80, the mixture was sonicated for thirty minutes at 45° C. until Compound 1 was completely dissolved and then deionized (DI) water was added to form a solution consisting of 20% Tween 80 and 80% DI water by weight.
For the IV and oral gavage dosing (sampling at jugular and portal vein), young adult male Sprague Dawley rats weighing 250-400 g were purchased from Hilltop Lab Animals Inc. All rat experiments were conducted under approved animal protocols. The rats for the oral gavage dosing were catheterized at Hilltop Lab Animals Inc, had two chronic catheters for sampling: jugular and portal, were housed in cages of Culex™ Automated Blood Sampler (ABS) and blood samples were collected simultaneously via both cannula and were controlled by the Culex™ ABS control software.
A quantitative method for determining the amount of (6,7-dimethoxy-2,4-dihydro-indeno[1,2-c]pyrazol-3-yl)-(3-fluoro-phenyl)-amine Compound 1 and its major metabolites, glucuronide A (Cpd 1-GluA) and glucuronide B (Cpd 1-GluB) (see Scheme A) in rat plasma was developed using phenacetin as an internal standard. [drawing 1]
The two glucuronide conjugates were prepared and purified to permit accurate quantification of the levels of intact parent Compound 1 versus Cpd 1-GluA and Cpd 1-GluB. Each standard curve for Compound 1, Cpd 1-GluA, and Cpd 1-GluB generated from rat plasma included ten concentration levels. […] The quantitative procedure for each sample included: sample preparation, HPLC separation and mass spectrometry detection.
The rat plasma was prepared using protein precipitation techniques. Reference standards and quality control samples in rat plasma for Compound 1 were transferred to a 96 deep-well plate. The precipitation solution contained 100 ng/ml of internal standard in acetonitrile. 300 μl of precipitation solution were added to 100 μl of each standard, quality control and plasma sample. Samples were vortexed for 10 mins, then centrifuged at 4500 RPM for 10 mins. 10 μl of each sample were injected for LC/MS/MS analysis.
The HPLC column chosen for the bioanalysis was purchased from Thermo Electron (Hypersil BetaBasic C18, 5 cm×2.1 mm). The eluting solvents were composed of Solvent A: 0.1% formic acid in H2O and Solvent B: 0.1% formic acid in acetonitrile. A step gradient was used and flow rate was 300 μl/min. The total run time was 3.2 mins. Solvent B was increased from 35% at 0 min to 75% at 2.1 mins and decreased back to 35% at 2.2 mins. The retention times for Compound 1, phenacetin, Cpd 1-GluA and Cpd 1-GluB were 1.1 min, 0.9 min, 1.3 min, and 1.6 min, respectively.
API3000 with a Turbo Ionspray interface from Applied Biosystems was used for the detection of Compound 1, the internal standard and major metabolites. Electrospray ionization was performed in the positive ion mode heated nebulizer with a temperature of 300° C. LC/MS/MS chromatograms were acquired in MRM (multiple reaction mode). The MRM transitions for Compound 1, the internal standard, Cpd 1-GluA and Cpd 1-GluB were from 326.3 to 190.6, 181.1 to 110.3, 502.2 to 368.3 and 502.2 to 326.4, respectively. […]

[1] = male, Sprague Dawley, rat, plasma (jugular vein sample), Compound 1 75 mg/kg oral gavage, jugular sample
[2] = male, Sprague Dawley, rat, plasma (portal vein sample), Compound 1 75 mg/kg oral gavage, portal sample
[3] = male, Sprague Dawley, rat, portal vein plasma, Compound 1 75 mg/kg oral gavage, portal sample

COc1cc2c(cc1OC)-c1nn(C3OC(C(=O)O)C(O)C(O)C3O)c(Nc3cccc(F)c3)c1C2 (stereo in doubt) [Cpd 1-GluB]
Ratio of metabolite to Compound 1 (jugular vein, oral gavage): 1 | AUC (male, Sprague Dawley, rat, plasma (jugular vein sample), Compound 1 75 mg/kg oral gavage, jugular sample, read-out: AUC average ± standard deviation 0 to 24 hours): 1710 ng·h/mL | AUC (male, Sprague Dawley, rat, plasma (jugular vein sample), Compound 1 75 mg/kg oral gavage, jugular sample, read-out: AUC average ± standard deviation 0 to infinite hours): 2180 ng·h/mL | concentration at 0 h [1]: 0 ng/mL | concentration at 0.08 h [1]: 37.8 ng/mL | concentration at 0.25 h [1]: 169 ng/mL | concentration at 0.33 h [1]: 233 ng/mL | concentration at 0.5 h [1]: 223 ng/mL | concentration at 0.67 h [1]: 244 ng/mL | concentration at 1 h [1]: 230 ng/mL | concentration at 1.25 h [1]: 178 ng/mL | concentration at 1.5 h [1]: 169 ng/mL | concentration at 2 h [1]: 141 ng/mL | concentration at 3 h [1]: 90 ng/mL | concentration at 4 h [1]: 51.4 ng/mL | concentration at 6 h [1]: 71.3 ng/mL | concentration at 12 h [1]: 86.5 ng/mL | concentration at 24 h [1]: 29 ng/mL | Cmax [1]: 268 ± 52 ng/mL | concentration at 0.67 h [2]: 290 ng/mL | concentration at 1 h [2]: 164 ng/mL | concentration at 1.25 h [2]: 183 ng/mL | concentration at 1.5 h [2]: 151 ng/mL | concentration at 2 h [2]: 142 ng/mL | concentration at 3 h [2]: 105 ng/mL | concentration at 4 h [2]: 79.5 ng/mL | concentration at 6 h [2]: 120 ng/mL | concentration at 12 h [2]: 87.2 ng/mL | Tmax (male, Sprague Dawley, rat, plasma, rats, Compound 1 75 mg/kg oral gavage): 30 min | AUC (male, Sprague Dawley, rat, portal vein plasma, Compound 1 75 mg/kg oral gavage, portal sample, read-out: AUC average ± standard deviation 0 to 24 hours): 1960 ng·h/mL | AUC (male, Sprague Dawley, rat, portal vein plasma, Compound 1 75 mg/kg oral gavage, portal sample, read-out: AUC average ± standard deviation 0 to infinite hours): 2490 ng·h/mL | concentration at 0 h [3]: 0 ng/mL | concentration at 0.08 h [3]: 82.8 ng/mL | concentration at 0.25 h [3]: 215 ng/mL | concentration at 0.33 h [3]: 263 ng/mL | concentration at 0.5 h [3]: 192 ng/mL | concentration at 24 h [3]: 39.9 ng/mL | Cmax [3]: 324 ± 129 ng/mL | Mean ratio of metabolite to Compound 1 (portal system, oral gavage): 0.2
